From patent US20260167623A1 (NIKANG THERAPEUTICS, INC., priority 2022, published 2026)

Legend:
CDK2 [1] = molecular target: T1, CDK2 (Homo sapiens, UniProt P24941); experiment: Inhibition of CDK2: phospho-Rb (S807/811) HTRF measurement in OVCAR3 cells, 24 h; type: cell-based; details: 24 h compound treatment, read-out: pRB_OVCAR3_24h
T1 construct: High-Throughput Measurement of Cellular Endogenous CDK2; endogenous in cells; host or cells: OVCAR3
Summary of the method: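 IC50 came from a four-parameter fit of DMSO-normalized TR-FRET ratios (665/620 nm) reporting phospho-Rb S807/811. Lysates were taken from OVCAR3 cultures treated 24 h with compound (0.3 to 10,000 nM) and incubated 4 h at room temperature with the antibody pair.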

CDK2 [2] = molecular target: T1, CDK2; experiment: High-throughput HTRF measurement of cellular endogenous CDK2 level (degradation, DC50/Dmax) in OVCAR3 cells, 6 h; type: cell-based; details: 6 h compound treatment, HTRF total CDK2, read-out: DC50_OVCAR3_6h
Experimental: High-Throughput Measurement of Cellular Endogenous CDK2
Effects of compounds on cellular CDK2 level were monitored by a high-throughput HTRF assay.
To determine half maximal degradation concentration (DC50) and maximum degradation level (Dmax) values of compounds, cellular CDK2 level was measured in 96-well format using HTRF total CDK2 cellular kit (Cat #64CDK2TPEG) from Cisbio.
On Day 1, OVCAR3 cells were seeded into 96-well tissue-culture treated plates at 20,000 cells/well in 200 μL and incubated overnight at 37° C. in CO2 atmosphere. On Day 2 cells were treated with compounds at concentration ranging from 0.03 to 1,000 nM using HP D300 digital dispenser. 6 hours after compound treatment, cell culture media was removed by flicking the plate and tapping the plate against clean paper towel. Immediately 30 μL 1× lysis buffer was supplemented from the kit and added to each well and the plate is incubated at room temperature on shaker for 30 min. After homogenization by pipetting up and down, 8 μL cell lysate from 96-well cell culture plate was transferred to 384-well small volume white detection plate. 2 μL premixed detection solution was added and the plate is covered with sealer. To prepare the detection solution, d2 conjugated-CDK2 antibody and Eu-cryptate conjugated CDK2 antibody were diluted into detection buffer following manufacturer's instruction. Detection plates were incubated overnight at room temperature and read on ClarioStar (BMG Labtech) in TR-FRET mode (665 nM and 620 nM). The TR-FRET ratio (665 nM/620 nM) was plotted against the compound concentration and normalized to DMSO controls (0% degradation) and lysis buffer controls (100% degradation). Half maximal degradation concentration (DC 50) […] were calculated with a four-parameter logistic fit using GraphPad Prism (version 8; La Jolla, CA).
In the table below, AA indicates a DC50 of greater than or equal to 0.5 nM but less than 1 nM; A indicates a DC50 of greater than or equal to 1 nM but less than or equal to 10 nM; B indicates a DC50 of greater than 10 nM but less than or equal to 100 nM; C indicates a DC50 of greater than 100 nM but less than or equal to 1 μM; and D indicates a DC50 of greater than 1 μM […] but less than or equal to 5 μM. NT means not tested.

Compound | IC50 (CDK2 [1]) [nM] | DC50 (CDK2 [2]) [nM]
Cn1nc(N2CCC(=O)NC2=O)c2ccc(C3CCN(CC4CCN(c5cccc(S(=O)(=O)N6CCC(Nc7ncc(C(F)(F)F)cn7)CC6)c5)CC4)CC3)c(Cl)c21 [Example 89, 1-(7-chloro-1-methyl-6-(1-((1-(3-((4-((5-(trifluoromethyl)pyrimidin-2-yl)amino)-piperidin-1-yl)sulfonyl)phenyl)piperidin-4-yl)methyl)piperidin-4-yl)-1H-indazol-3-yl)dihydropyrimidine-2,4(1H,3H)-dione] | 1 to 100 | 10 to 100
CC(c1cccc(S(=O)(=O)N2CCC(Nc3ncc(Cl)cn3)CC2)c1)N1CCC(c2ccc3c(N4CCC(=O)NC4=O)nn(C)c3c2)CC1 (stereo not shown) [Example 38] | 100 to 500 | 10 to 100
Cn1nc(N2CCC(=O)NC2=O)c2ccc(C3CCN(CCCc4cccc(S(=O)(=O)N5CCC(Nc6ncc(OC(F)F)cn6)CC5)c4)CC3)cc21 [Example 86, 1-(6-(1-(3-(3-((4-((5-(difluoromethoxy)-pyrimidin-2-yl)amino)piperidin-1-yl)sulfonyl)phenyl)propyl)piperidin-4-yl)-1-methyl-1H-indazol-3-yl)dihydropyrimidine-2,4(1H,3H)-dione] | 1 to 100 | 10 to 100
Cn1nc(N2CCC(=O)NC2=O)c2ccc(C3CCN(CC4CCN(c5cc(S(=O)(=O)N6CCC(Nc7ncc(C(F)(F)F)cn7)CC6)ccc5C#N)CC4)CC3)c(F)c21 [Example 188, 2-(4-((4-(3-(2,4-dioxotetrahydropyrimidin-1(2H)-yl)-7-fluoro-1-methyl-1H-indazol-6-yl)piperidin-1-yl)methyl)piperidin-1-yl)-4-((4-((5-(trifluoromethyl)pyrimidin-2-yl)amino)piperidin-1-yl)sulfonyl)benzonitrile] | 1 to 100 | 10 to 100
Cn1nc(N2CCC(=O)NC2=O)c2ccc(C3CCN(CC4CCN(c5cccc(S(=O)(=O)N6CCC(Nc7ncc(Cl)cn7)CC6)c5)CC4)CC3)c(F)c21 [Example 95, 1-(6-(1-((1-(3-((4-((5-chloropyrimidin-2-yl)amino)piperidin-1-yl)sulfonyl)phenyl)-piperidin-4-yl)methyl)piperidin-4-yl)-7-fluoro-1-methyl-1H-indazol-3-yl)dihydropyrimidine-2,4(1H,3H)-dione] | 1 to 100 | 1 to 10
Cn1nc(N2CCC(=O)NC2=O)c2ccc(C3CCN(CC4CCN(c5cc(S(=O)(=O)N6CCC(Nc7ncc(Cl)cn7)CC6)ccc5C#N)CC4)CC3)cc21 [Example 148, 4-((4-((5-chloropyrimidin-2-yl)amino)piperidin-1-yl)sulfonyl)-2-(4-((4-(3-(2,4-dioxotetrahydropyrimidin-1(2H)-yl)-1-methyl-1H-indazol-6-yl)piperidin-1-yl)methyl)piperidin-1-yl)benzonitrile] | 1 to 100 | 10 to 100
Cc1ncsc1-c1ccc([C@H](C)NC(=O)[C@@H]2C[C@@H](O)CN2C(=O)[C@H](NC(=O)C2CCN(Cc3cccc(S(=O)(=O)N4CCC(Nc5ncc(C(F)(F)F)cn5)CC4)c3)CC2)C(C)(C)C)cc1 [Example 7, N-((R)-1-((2S,4R)-4-hydroxy-2-(((S)-1-(4-(4-methylthiazol-5-yl)phenyl)ethyl)-carbamoyl)pyrrolidin-1-yl)-3,3-dimethyl-1-oxobutan-2-yl)-1-(3-((4-((5-(trifluoro-methyl)pyrimidin-2-yl)amino)piperidin-1-yl)sulfonyl)benzyl) piperidine-4-carboxamide] | 100 to 500 | 100 to 1000
Cn1nc(N2CCC(=O)NC2=O)c2ccc(C3CCN(Cc4cccc(S(=O)(=O)N5CCC(Nc6ncc(Cl)cn6)CC5)c4)CC3)cc21 [Example 11, 1-(6-(1-(3-((4-((5-chloropyrimidin-2-yl)amino)piperidin-1-yl)sulfonyl)benzyl)-piperidin-4-yl)-1-methyl-1H-indazol-3-yl)dihydropyrimidine-2,4(1H,3H)-dione] | 100 to 500 | 1 to 10
Cn1nc(N2CCC(=O)NC2=O)c2ccc(C3CCC(CN4CCC(c5cccc(S(=O)(=O)N6CCC(Nc7ncc(C(F)(F)F)cn7)CC6)c5)CC4)CC3)cc21 (stereo not shown) [Example 238, 1-(1-methyl-6-(4-((4-(3-((4-((5-(trifluoromethyl)pyrimidin-2-yl)amino)piperidin-1-yl)sulfonyl)phenyl)piperidin-1-yl)methyl)cyclohexyl)-1H-indazol-3-yl)dihydropyrimidine-2,4(1H,3H)-dione] | 1 to 100 | 10 to 100
CC(Cc1cccc(S(=O)(=O)N2CCC(Nc3ncc(C(F)(F)F)cn3)CC2)c1)CN1CCC(c2ccc3c(N4CCC(=O)NC4=O)nn(C)c3c2)CC1 (stereo not shown) [Example 29] | 1 to 100 | 1 to 10
Cn1nc(N2CCC(=O)NC2=O)c2ccc(C3CCN(Cc4cccc(S(=O)(=O)N5CCC(Nc6ncc(OC(F)F)cn6)CC5)c4)CC3)c(F)c21 [Example 93, 1-(6-(1-(3-((4-((5-(difluoromethoxy)-pyrimidin-2-yl)amino)piperidin-1-yl)sulfonyl)benzyl)piperidin-4-yl)-7-fluoro-1-methyl-1H-indazol-3-yl)dihydropyrimidine-2,4(1H,3H)-dione] | 1 to 100 | 1 to 10
Cn1nc(N2CCC(=O)NC2=O)c2cc(F)c(C3CCN(CC4CCN(c5cc(S(=O)(=O)N6CCC(Nc7ncc(Cl)cn7)CC6)ccc5C#N)CC4)CC3)cc21 [Example 153, 4-((4-((5-chloropyrimidin-2-yl)amino)piperidin-1-yl)sulfonyl)-2-(4-((4-(3-(2,4-dioxotetrahydropyrimidin-1(2H)-yl)-5-fluoro-1-methyl-1H-indazol-6-yl)piperidin-1-yl)methyl)piperidin-1-yl)benzonitrile] | 1 to 100 | 10 to 100

Next, values leading:

IC50 (CDK2 [1]) [nM] | DC50 (CDK2 [2]) [nM] | Compound
1 to 100 | 1 to 10 | Cn1nc(N2CCC(=O)NC2=O)c2ccc(C3CCN(CC4CCN(c5cc(S(=O)(=O)N6CCC(Nc7ncc(C(F)(F)F)cn7)CC6)ccc5C#N)CC4)CC3)cc21 [Example 152, 2-(4-((4-(3-(2,4-dioxotetrahydropyrimidin-1(2H)-yl)-1-methyl-1H-indazol-6-yl)piperidin-1-yl)methyl)piperidin-1-yl)-4-((4-((5-(trifluoromethyl)pyrimidin-2-yl)amino)piperidin-1-yl)sulfonyl)benzonitrile]
1 to 100 | 10 to 100 | N#Cc1ccc(S(=O)(=O)N2CCC(Nc3ncc(Cl)cn3)CC2)cc1N1CCC(CN2CCC(c3cccc4c3oc(=O)n4C3CCC(=O)NC3=O)CC2)CC1 (stereo not shown) [Example 197, 4-((4-((5-chloropyrimidin-2-yl)amino)piperidin-1-yl)sulfonyl)-2-(4-((4-(3-(2,6-dioxopiperidin-3-yl)-2-oxo-2,3-dihydrobenzo[d]oxazol-7-yl)piperidin-1-yl)methyl)piperidin-1-yl)benzonitrile]
1 to 100 | 10 to 100 | Cn1c(=O)n(C2CCC(=O)NC2=O)c2cc(F)cc(C3CCN(CC4CCN(c5cc(S(=O)(=O)N6CCC(Nc7ncc(Cl)cn7)CC6)ccc5C#N)CC4)CC3)c21 (stereo not shown) [Example 209, 4-((4-((5-chloropyrimidin-2-yl)amino)piperidin-1-yl)sulfonyl)-2-(4-((4-(1-(2,6-dioxopiperidin-3-yl)-6-fluoro-3-methyl-2-oxo-2,3-dihydro-1H-benzo[d]imidazol-4-yl)piperidin-1-yl)methyl)piperidin-1-yl)benzonitrile]
1 to 100 | 0.5 to 1 | Cn1c(=O)n(C2CCC(=O)NC2=O)c2ccc(C3CCN(CC4CCN(c5cc(S(=O)(=O)N6CCC(Nc7ncc(C(F)(F)F)cn7)CC6)ccc5C#N)CC4)CC3)cc21 (stereo not shown) [Example 205, 2-(4-((4-(1-(2,6-dioxopiperidin-3-yl)-3-methyl-2-oxo-2,3-dihydro-1H-benzo[d]imidazol-5-yl)piperidin-1-yl)methyl)piperidin-1-yl)-4-((4-((5-(trifluoromethyl)pyrimidin-2-yl)amino)piperidin-1-yl)sulfonyl)benzonitrile]
1 to 100 | 1 to 10 | Cn1c(=O)n(C2CCC(=O)NC2=O)c2cccc(C3CCN(CC4CCN(c5cccc(S(=O)(=O)N6CCC(Nc7ncc(C(F)(F)F)cn7)CC6)c5)CC4)CC3)c21 (stereo not shown) [Example 107, 3-(3-methyl-2-oxo-4-(1-((1-(3-((4-((5-(trifluoromethyl)pyrimidin-2-yl)amino)-piperidin-1-yl)sulfonyl)phenyl)piperidin-4-yl)methyl)piperidin-4-yl)-2,3-dihydro-1H-benzo[d]imidazol-1-yl)piperidine-2,6-dione]
